Results taken from patent US20110065645A1, “Compositions and Methods for Modulating Neuron Degeneration and Neuron Guidance” (The Regents of the University of California, priority 2009, published 2011).

Columns and labels:
commissural axons = assay: Open book spinal cord explant treatments and DiI injections (midline pathfinding); format: cell-based; conditions: rat E13 open-book; 5E1 100 ng/ml, Forskolin 25 μM, KT5720 25 μM; 12-14 hrs
Description: Blocking Shh activity causes midline guidance defects. To determine the role of Shh in regulating midline pathfinding, we analyzed the trajectory of commissural axons in rat E13 “open-book” spinal cord preparations treated with the function-blocking antibody for Shh, 5E1. The projections of these commissural axons were visualized by injecting the lipophilic dye, DiI, to the dorsal margin of the spinal cord (FIG. 32J). In “open-book” explants, commissural axons can recapitulate the in vivo pathfinding and project from the dorsal spinal cord margin across the floor plate and then turn sharply anteriorly on the contralateral side.^(7,8). […] Normally, after midline crossing, commissural axons make a sharp anterior turn and either project into the ventral funiculus alongside the floor plate or fan out in a highly organized manner to grow laterally into the lateral funiculus^(7) (FIG. 32G). […] The spinal cord midline is a three-dimensional structure. […] Some of the injection sites were therefore scored for more than one category of phenotypes. […]
Shh may induce Sema repulsion by reducing cAMP/PKA signaling. […] In “open-book” explant cultures we treated commissural axons with the activator for adenylyl cyclase (and consequently cAMP), Forskolin and the PKA inhibitor KT5720 and analyzed commissural axon pathfidning by DiI tracing as shown in FIG. 32J. […]

PKA = assay: Western blot of activated phospho-PKA (Thr197) in dissociated commissural neurons; format: cell-based, rat; conditions: Shh-N 2.5 μg/ml for one hour; KT5720 25 μM for 15 minutes
Method: To confirm that PKA activity can be reduced in commissural neurons exposed to Shh, we treated dissociated spinal cord commissural neurons with Shh and analyzed the level of activated PKA. 24 hr after plating, commissural neurons were serum starved overnight and then treated with 2.5 μg/ml (150 nM) of Shh-N recombinant protein (R&D) for one hour prior to lysate collection. Forskolin (25 μM), and the PKA inhibitor, KT5720 (25 μM) were added to the commissural neuron culture as controls for 15 minutes before lysis. We then tested these lysates for levels of activated PKA with an antibody that specifically recognizes an activated form of the catalytic domain of PKA (phosphorylated at Thr197).
Dissociated commissural neuronal culture. Spinal cords were isolated from rat E13 embryos and commissural neurons were dissociated as previously described.^(8) In brief, embryos were treated with Dispase I (0.25 mg/ml; D4818, Sigma) for 5 minutes prior isolation of spinal cords, followed by collection of spinal cord dorsal domains by microdissection and incubation with Trypsin (1 mg/ml; T47-99, Sigma) for 10-12 min in a 37° C. water bath. The tissue was then triturated with flamed glass pipettes and a single cell suspension was plated on poly-D-lysine (PDL; 20 μg/ml) and laminin (10 μg/ml) coated coverslips or 12 well plates (Corning). More than 90% cells in these cultures express TAG-1, a marker for spinal cord commissural neurons (FIG. 35B). 10^5 dissociated cells were plated on PDL/laminin coated coverslips and cultured for 24 hrs before processed for immunohistochemistry as described above. For Western blot analysis, 10^6 dissociated cells were plated on PDL/laminin coated 12-well tissue culture plates and cultured initially for 24 hrs in dorsal explant media (replenished daily) then changed to low serum medium overnight prior to treatments. […]

SMILES: CCCCCCOC(=O)[C@]1(O)C[C@@H]2O[C@@]1(C)n1c3ccccc3c3c4c(c5c6ccccc6n2c5c31)C(=O)NC4 [KT5720, reference compound]
- commissural axon midline pathfinding (DiI tracing) (commissural axons): prevented a vast number of axons from entering the floor plate
- level of activated PKA (PKA): reduce the level of activated PKA
